System: LNCaP
Experiment: Cytotoxicity against human LNCAP cells assessed as inhibition of cell viability after 24 hrs by CCK-8 assay
Type: functional, cell-based
Conditions: not given

Row | SMILES | IC50 [µM]
1 | COc1cc(OC)cc(OCc2ccc(CCN3CCN(c4ccccc4C)CC3)cc2)c1 | 35.8
2 | COc1cc(OC)cc(OCc2ccc(CCN3CCN(c4ccccc4)CC3)cc2)c1 | > 50
3 | COc1cc(OC)cc(OCc2ccc(CCN3CCN(c4ccccn4)CC3)cc2)c1 | 42.3
4 | COc1cc(OC)cc(OCc2ccc(CCN3CCN(Cc4ccccc4)CC3)cc2)c1 | 6.07
5 | COc1cc(OC)cc(OCc2ccc(CCN3CCN(c4ccc(C)cc4)CC3)cc2)c1 | 35.2
6 | COc1cc(OC)cc(OCc2ccc(CCN3CCN(c4cccc(C)c4)CC3)cc2)c1 | 2.35
7 | COc1cc(OC)cc(OCc2ccc(CCN3CCN(c4cc(C)ccc4C)CC3)cc2)c1 | 36.1
8 | COc1cc(OC)cc(OCc2ccc(CCN3CCN(c4ccccc4OC)CC3)cc2)c1 | 26.3
9 | CCOc1ccccc1N1CCN(CCc2ccc(COc3cc(OC)cc(OC)c3)cc2)CC1 | > 50
10 | COc1ccc(N2CCN(CCc3ccc(COc4cc(OC)cc(OC)c4)cc3)CC2)cc1 | > 50
11 | COc1cc(OC)cc(OCc2ccc(CCN3CCN(c4cccc(OC)c4)CC3)cc2)c1 | 20
12 | COc1cc(OC)cc(OCc2ccc(CCN3CCN(c4cc(Cl)ccc4OC)CC3)cc2)c1 | 39.8
13 | COc1cc(OC)cc(OCc2ccc(CCN3CCN(c4ccccc4F)CC3)cc2)c1 | 7.25
14 | COc1cc(OC)cc(OCc2ccc(CCN3CCN(c4ccc(F)cc4)CC3)cc2)c1 | 35
15 | COc1cc(OC)cc(OCc2ccc(CCN3CCN(c4ccc(F)cc4F)CC3)cc2)c1 | > 50
16 | COc1cc(OC)cc(OCc2ccc(CCN3CCN(c4ccccc4Cl)CC3)cc2)c1 | 32.5
17 | COc1cc(OC)cc(OCc2ccc(CCN3CCN(c4ccc(Cl)cc4)CC3)cc2)c1 | > 50
18 | COc1cc(OC)cc(OCc2ccc(CCN3CCN(c4cccc(Cl)c4)CC3)cc2)c1 | 36.6
19 | COc1cc(OC)cc(OCc2ccc(CCN3CCN(c4cccc(Cl)c4Cl)CC3)cc2)c1 | > 50
20 | COc1cc(OC)cc(OCc2ccc(CCN3CCN(c4cc(Cl)ccc4C)CC3)cc2)c1 | 2.73
21 | COc1cc(OC)cc(OCc2ccc(CCN3CCN(c4ccc(Br)cc4)CC3)cc2)c1 | > 50
22 | COc1cc(OC)cc(OCc2ccc(CCN3CCN(c4ccccc4C(F)(F)F)CC3)cc2)c1 | > 50
23 | COc1cc(OC)cc(OCc2ccc(CCN3CCN(c4ccc(C(F)(F)F)cc4)CC3)cc2)c1 | > 50
24 | COc1cc(OC)cc(OCc2ccc(CCN3CCN(c4ccc(C#N)cc4)CC3)cc2)c1 | > 50
25 | COc1cc(OC)cc(OCc2ccc(CCN3CCN(c4ccccc4S(C)(=O)=O)CC3)cc2)c1 | 0.97
26 | COc1ccccc1N1CCN(CC(O)COc2cccc3ccccc23)CC1 (centres undefined) [NAFTOPIDIL] | 22.4

System: not listed separately
Experiment: Cytotoxicity against human PC3 cells assessed as inhibition of cell viability after 24 hrs by CCK-8 assay
Type: functional, cell-based
Conditions: PC-3, 24 h

Row | SMILES | IC50 [µM]
27 | COc1cc(OC)cc(OCc2ccc(CCN3CCN(c4ccccc4C)CC3)cc2)c1 | 30.2
28 | COc1cc(OC)cc(OCc2ccc(CCN3CCN(c4ccccc4)CC3)cc2)c1 | 31.2
29 | COc1cc(OC)cc(OCc2ccc(CCN3CCN(c4ccccn4)CC3)cc2)c1 | 25.6
30 | COc1cc(OC)cc(OCc2ccc(CCN3CCN(Cc4ccccc4)CC3)cc2)c1 | 6.79
31 | COc1cc(OC)cc(OCc2ccc(CCN3CCN(c4ccc(C)cc4)CC3)cc2)c1 | 48.2
32 | COc1cc(OC)cc(OCc2ccc(CCN3CCN(c4cccc(C)c4)CC3)cc2)c1 | 30.6
33 | COc1cc(OC)cc(OCc2ccc(CCN3CCN(c4cc(C)ccc4C)CC3)cc2)c1 | 31
34 | COc1cc(OC)cc(OCc2ccc(CCN3CCN(c4ccccc4OC)CC3)cc2)c1 | 26.5
35 | CCOc1ccccc1N1CCN(CCc2ccc(COc3cc(OC)cc(OC)c3)cc2)CC1 | 27.1
36 | COc1ccc(N2CCN(CCc3ccc(COc4cc(OC)cc(OC)c4)cc3)CC2)cc1 | 32.9
37 | COc1cc(OC)cc(OCc2ccc(CCN3CCN(c4cccc(OC)c4)CC3)cc2)c1 | 25.3
38 | COc1cc(OC)cc(OCc2ccc(CCN3CCN(c4cc(Cl)ccc4OC)CC3)cc2)c1 | 27.1
39 | COc1cc(OC)cc(OCc2ccc(CCN3CCN(c4ccccc4F)CC3)cc2)c1 | 25.3
40 | COc1cc(OC)cc(OCc2ccc(CCN3CCN(c4ccc(F)cc4)CC3)cc2)c1 | 28.8
41 | COc1cc(OC)cc(OCc2ccc(CCN3CCN(c4ccc(F)cc4F)CC3)cc2)c1 | 35.4
42 | COc1cc(OC)cc(OCc2ccc(CCN3CCN(c4ccccc4Cl)CC3)cc2)c1 | 25.2
43 | COc1cc(OC)cc(OCc2ccc(CCN3CCN(c4ccc(Cl)cc4)CC3)cc2)c1 | 18.9
44 | COc1cc(OC)cc(OCc2ccc(CCN3CCN(c4cccc(Cl)c4)CC3)cc2)c1 | 30.9
45 | COc1cc(OC)cc(OCc2ccc(CCN3CCN(c4cccc(Cl)c4Cl)CC3)cc2)c1 | 18.4
46 | COc1cc(OC)cc(OCc2ccc(CCN3CCN(c4cc(Cl)ccc4C)CC3)cc2)c1 | 32.2
47 | COc1cc(OC)cc(OCc2ccc(CCN3CCN(c4ccc(Br)cc4)CC3)cc2)c1 | 25.6
48 | COc1cc(OC)cc(OCc2ccc(CCN3CCN(c4ccccc4C(F)(F)F)CC3)cc2)c1 | 40.3
49 | COc1cc(OC)cc(OCc2ccc(CCN3CCN(c4ccc(C(F)(F)F)cc4)CC3)cc2)c1 | 23.8
50 | COc1cc(OC)cc(OCc2ccc(CCN3CCN(c4ccc(C#N)cc4)CC3)cc2)c1 | 27.6
51 | COc1cc(OC)cc(OCc2ccc(CCN3CCN(c4ccccc4S(C)(=O)=O)CC3)cc2)c1 | 9.42
52 | COc1ccccc1N1CCN(CC(O)COc2cccc3ccccc23)CC1 (centres undefined) [NAFTOPIDIL] | 42.1

System: DU-145
Experiment: Cytotoxicity against human DU145 cells assessed as inhibition of cell viability after 24 hrs by CCK-8 assay
Type: functional, cell-based
Conditions: DU-145, 24 h

Row | SMILES | IC50 [µM]
53 | COc1cc(OC)cc(OCc2ccc(CCN3CCN(c4ccccc4C)CC3)cc2)c1 | 19.3
54 | COc1cc(OC)cc(OCc2ccc(CCN3CCN(c4ccccc4)CC3)cc2)c1 | 25
55 | COc1cc(OC)cc(OCc2ccc(CCN3CCN(c4ccccn4)CC3)cc2)c1 | 16.8
56 | COc1cc(OC)cc(OCc2ccc(CCN3CCN(Cc4ccccc4)CC3)cc2)c1 | 5.83
57 | COc1cc(OC)cc(OCc2ccc(CCN3CCN(c4ccc(C)cc4)CC3)cc2)c1 | 24.1
58 | COc1cc(OC)cc(OCc2ccc(CCN3CCN(c4cccc(C)c4)CC3)cc2)c1 | 28.6
59 | COc1cc(OC)cc(OCc2ccc(CCN3CCN(c4cc(C)ccc4C)CC3)cc2)c1 | 27.6
60 | COc1cc(OC)cc(OCc2ccc(CCN3CCN(c4ccccc4OC)CC3)cc2)c1 | 30.5
61 | CCOc1ccccc1N1CCN(CCc2ccc(COc3cc(OC)cc(OC)c3)cc2)CC1 | 27.2
62 | COc1ccc(N2CCN(CCc3ccc(COc4cc(OC)cc(OC)c4)cc3)CC2)cc1 | 19.2
63 | COc1cc(OC)cc(OCc2ccc(CCN3CCN(c4cccc(OC)c4)CC3)cc2)c1 | 16.9
64 | COc1cc(OC)cc(OCc2ccc(CCN3CCN(c4cc(Cl)ccc4OC)CC3)cc2)c1 | 26.7
65 | COc1cc(OC)cc(OCc2ccc(CCN3CCN(c4ccccc4F)CC3)cc2)c1 | 25.4
66 | COc1cc(OC)cc(OCc2ccc(CCN3CCN(c4ccc(F)cc4)CC3)cc2)c1 | 28.2
67 | COc1cc(OC)cc(OCc2ccc(CCN3CCN(c4ccc(F)cc4F)CC3)cc2)c1 | 24.2
68 | COc1cc(OC)cc(OCc2ccc(CCN3CCN(c4ccccc4Cl)CC3)cc2)c1 | 23.2
69 | COc1cc(OC)cc(OCc2ccc(CCN3CCN(c4ccc(Cl)cc4)CC3)cc2)c1 | 12.7
70 | COc1cc(OC)cc(OCc2ccc(CCN3CCN(c4cccc(Cl)c4)CC3)cc2)c1 | 27.1
71 | COc1cc(OC)cc(OCc2ccc(CCN3CCN(c4cccc(Cl)c4Cl)CC3)cc2)c1 | 30.2
72 | COc1cc(OC)cc(OCc2ccc(CCN3CCN(c4cc(Cl)ccc4C)CC3)cc2)c1 | 28
73 | COc1cc(OC)cc(OCc2ccc(CCN3CCN(c4ccc(Br)cc4)CC3)cc2)c1 | 29.5
74 | COc1cc(OC)cc(OCc2ccc(CCN3CCN(c4ccccc4C(F)(F)F)CC3)cc2)c1 | 39.2
75 | COc1cc(OC)cc(OCc2ccc(CCN3CCN(c4ccc(C(F)(F)F)cc4)CC3)cc2)c1 | 28.5
76 | COc1cc(OC)cc(OCc2ccc(CCN3CCN(c4ccc(C#N)cc4)CC3)cc2)c1 | 46.3
77 | COc1cc(OC)cc(OCc2ccc(CCN3CCN(c4ccccc4S(C)(=O)=O)CC3)cc2)c1 | 7.68
78 | COc1ccccc1N1CCN(CC(O)COc2cccc3ccccc23)CC1 (centres undefined) [NAFTOPIDIL] | 34.6

System: not listed separately
Experiment: Cytotoxicity against human RWPE1 cells assessed as inhibition of cell viability after 24 hrs by CCK-8 assay
Type: cell-based
Conditions: RWPE-1, 24 h

Row | SMILES | IC50 [µM]
79 | COc1cc(OC)cc(OCc2ccc(CCN3CCN(c4ccccc4C)CC3)cc2)c1 | 35.6
80 | COc1cc(OC)cc(OCc2ccc(CCN3CCN(c4ccccc4)CC3)cc2)c1 | > 50
81 | COc1cc(OC)cc(OCc2ccc(CCN3CCN(c4ccccn4)CC3)cc2)c1 | > 50
82 | COc1cc(OC)cc(OCc2ccc(CCN3CCN(Cc4ccccc4)CC3)cc2)c1 | > 50
83 | COc1cc(OC)cc(OCc2ccc(CCN3CCN(c4ccc(C)cc4)CC3)cc2)c1 | > 50
84 | COc1cc(OC)cc(OCc2ccc(CCN3CCN(c4cccc(C)c4)CC3)cc2)c1 | > 50
85 | COc1cc(OC)cc(OCc2ccc(CCN3CCN(c4cc(C)ccc4C)CC3)cc2)c1 | > 50
86 | COc1cc(OC)cc(OCc2ccc(CCN3CCN(c4ccccc4OC)CC3)cc2)c1 | 28.8
87 | CCOc1ccccc1N1CCN(CCc2ccc(COc3cc(OC)cc(OC)c3)cc2)CC1 | > 50
88 | COc1ccc(N2CCN(CCc3ccc(COc4cc(OC)cc(OC)c4)cc3)CC2)cc1 | > 50
89 | COc1cc(OC)cc(OCc2ccc(CCN3CCN(c4cccc(OC)c4)CC3)cc2)c1 | 39.9
90 | COc1cc(OC)cc(OCc2ccc(CCN3CCN(c4cc(Cl)ccc4OC)CC3)cc2)c1 | > 50
91 | COc1cc(OC)cc(OCc2ccc(CCN3CCN(c4ccccc4F)CC3)cc2)c1 | 35.4
92 | COc1cc(OC)cc(OCc2ccc(CCN3CCN(c4ccc(F)cc4)CC3)cc2)c1 | > 50
93 | COc1cc(OC)cc(OCc2ccc(CCN3CCN(c4ccc(F)cc4F)CC3)cc2)c1 | > 50
94 | COc1cc(OC)cc(OCc2ccc(CCN3CCN(c4ccccc4Cl)CC3)cc2)c1 | > 50
95 | COc1cc(OC)cc(OCc2ccc(CCN3CCN(c4ccc(Cl)cc4)CC3)cc2)c1 | > 50
96 | COc1cc(OC)cc(OCc2ccc(CCN3CCN(c4cccc(Cl)c4)CC3)cc2)c1 | > 50
97 | COc1cc(OC)cc(OCc2ccc(CCN3CCN(c4cccc(Cl)c4Cl)CC3)cc2)c1 | 36.6
98 | COc1cc(OC)cc(OCc2ccc(CCN3CCN(c4cc(Cl)ccc4C)CC3)cc2)c1 | 36.5
99 | COc1cc(OC)cc(OCc2ccc(CCN3CCN(c4ccc(Br)cc4)CC3)cc2)c1 | > 50
100 | COc1cc(OC)cc(OCc2ccc(CCN3CCN(c4ccccc4C(F)(F)F)CC3)cc2)c1 | > 50
101 | COc1cc(OC)cc(OCc2ccc(CCN3CCN(c4ccc(C(F)(F)F)cc4)CC3)cc2)c1 | > 50
102 | COc1cc(OC)cc(OCc2ccc(CCN3CCN(c4ccc(C#N)cc4)CC3)cc2)c1 | 45.8
103 | COc1cc(OC)cc(OCc2ccc(CCN3CCN(c4ccccc4S(C)(=O)=O)CC3)cc2)c1 | > 50
104 | COc1ccccc1N1CCN(CC(O)COc2cccc3ccccc23)CC1 (centres undefined) [NAFTOPIDIL] | > 50

From ChEMBL document CHEMBL3351488, “Design, synthesis and biological evaluation of novel arylpiperazine derivatives on human prostate cancer cell lines” (Bioorg Med Chem Lett, 2015)
